Values joined by “and” are separate entries in the source; they are usually repeats but may differ in a detail not shown here. Equal entries are not always repeated.
What was measured:
[1] = system: HCV-RNA replication in ORL8 cells (HCV-O strain, Li23-derived); assay: microbe, parasite or virus in culture
Excerpt: (§1) Assay systems using OR6 cells (HCV-O strain), 1B-4R cells (HCV-1B-4 strain), and AH1R cells (HCV-AH1R strain) as HuH-7 cell-derived full-length HCV-RNA-replicating cells, and ORL8 cells (HCV-O strain), ORL11 cells (HCV-O strain), 1B-4RL cells (HCV-1B-4 strain), and KAH5RL cells (HCV-KAH5 strain) as Li23 cell-derived full-length HCV-RNA-replicating cells were used for the quantitative analysis of anti-HCV activity and evaluation of a cytotoxic effect in the present invention. The three cell lines, i.e., the 1B-4R cells, the 1B-4RL cells, and the KAH5RL cells have been disclosed in WO 2010/026965 A1. The AH1R cells may be produced with reference to Mori K et al., BBRC, 371:104-109, 2008 and WO 2010/026965 A1. In addition, all the HCV strains belong to genotype 1b.
(§2) As necessary, an increase or decrease in expression level of an HCV protein (core protein) was examined by a Western blot method.
(§3) In the measurement of the renilla luciferase activity and the measurement by the WST-1 method, experiments were performed in three wells independent of each other, and their means and standard deviation were calculated.
The anti-HCV activities of N-89 and N-251 were examined using ORL8 cells and the EC50 values were calculated. An experimental scale and schedule are the same as those in Example 1.
N-89 and N-251 were added so as to achieve concentrations of 5 μM, a 2-fold dilution series from 5 μM (2.5, 1.3, 0.63, 0.31, 0.16, and 0.08 μM), and 0. The luciferase activities were measured 72 hours after the culture.
(§4) The anti-HCV activity of artemisinin was examined using OR6 cells and ORL8 cells and the EC50 values were calculated. An experimental scale and schedule are the same as those in Example 1.
(§5) Artemisinin was added so as to achieve concentrations of 100 μM, a 2-fold dilution series from 100 μM (50, 25, 13, 6.3, 3.1, and 1.6 μM), and 0. The luciferase activities were measured 72 hours after the culture.

[2] = Cytotoxic effect, WST-1 cell proliferation assay in ORL8 cells; conditions: human
Excerpt: as §1, §3
The cytotoxic effects of N-89 and N-251 were examined using ORL8 cells and the CC50 values were calculated. An experimental scale and schedule are the same as those in Example 1.
N-89 and N-251 were added so as to achieve concentrations of 5 μM, a 2-fold dilution series from 5 μM (2.5, 1.3, 0.63, 0.31, 0.16, and 0.08 μM), and 0. The WST-1 cell proliferation assay was performed 72 hours after the culture.
The cytotoxic effect of artemisinin was examined using OR6 and ORL8 cells and the CC50 values were calculated. An experimental scale and schedule are the same as those in Example 1. Artemisinin was added so as to achieve concentrations of 400 μM, a 2-fold dilution series from 400 μM (200, 100, 50, 25, and 13 μM), and 0. The WST-1 cell proliferation assay was performed 72 hours after the culture.

[3] = system: HuH-7-derived HCV-replicon-replicating cells; conditions: Paeshuyse J et al., BBRC 2006; cited from earlier work
[4] = system: HCV-RNA replication in OR6 cells (HCV-O strain, HuH-7-derived); assay: microbe, parasite or virus in culture
Excerpt: as §1, §2, §3
OR6 cells, which had been cultured in general medium for subculture, were plated onto a 24-well plate (2×10^4 cells in 1 mL of medium for […] cell line per well) and cultured. After 24 hours, N-89 was added so as to achieve concentrations of 20 μM, a 2-fold dilution series from 20 μM (10, 5, 2.5, 1.3, 0.63, and 0.31 μM), and 0, or N-251 was added so as to achieve concentrations of 10 μM, a 2-fold dilution series from 10 μM (5, 2.5, 1.3, 0.63, 0.31, and 0.16 μM), and 0. The renilla luciferase activities were measured 72 hours after the culture. N-89 and N-251 were diluted with DMSO.
as §4, §5

[5] = Cytotoxic effect, WST-1 cell proliferation assay in OR6 cells; conditions: human
Excerpt: as §1, §3
After 24 hours, N-89 was added so as to achieve concentrations of 20 μM, a 2-fold dilution series from 20 μM (10, 5, 2.5, 1.3, 0.63, and 0.31 μM), and 0, or N-251 was added so as to achieve concentrations of 10 μM, a 2-fold dilution series from 10 μM (5, 2.5, 1.3, 0.63, 0.31, and 0.16 μM), and 0.
The cytotoxic effect of artemisinin was examined using OR6 and ORL8 cells and the CC50 values were calculated. […]

[6] = system: HCV-RNA replication in ORL8 cells; assay: Effect of antioxidant vitamin E on anti-HCV activity in ORL8 cells (luciferase activity); format: cell-based, HCV genotype 1b; conditions: for canceling of the anti-HCV activity by vitamin E: vitamin E 10 μM
Procedure: The effect of addition of vitamin E on the anti-HCV activity of N-89 was examined using ORL8 cells. An experimental scale and schedule are the same as those in Example 1.
N-89 and vitamin E were simultaneously added so that the concentrations of N-89 and vitamin E were set to 0.5 μM and 10 μM, respectively. The luciferase activity was measured 72 hours after the culture.
The effect of addition of vitamin E on the anti-HCV activity of N-251 was examined using ORL8 cells. An experimental scale and schedule are the same as those in Example 1.
N-251 and vitamin E were simultaneously added so that the concentrations of N-251 and vitamin E were set to 0.5 μM and 10 μM, respectively. The luciferase activity was measured 72 hours after the culture.
The effect of addition of vitamin E on the anti-HCV activity of artemisinin was examined using ORL8 cells. An experimental scale and schedule are the same as those in Example 1.
Artemisinin and vitamin E were simultaneously added so that the concentrations of artemisinin and vitamin E were set to 100 μM and 10 μM, respectively. The luciferase activity was measured 72 hours after the culture.

[7] = system: HCV-RNA replication in ORL8 cells; assay: Influence of oxidizing agents KNO3 and NaClO4 on anti-HCV activity in ORL8 cells; format: cell-based, HCV genotype 1b; conditions: 10 μM, 72 hours
Procedure: The effects of addition of KNO3 and NaClO4 on the anti-HCV activity of N-89 were examined using ORL8 cells.
N-89 and KNO3 or NaClO4 were simultaneously added so that the concentrations of N-89 and KNO3 or NaClO4 were set to 0.5 μM and 10 μM, respectively. The luciferase activity was measured 72 hours after the culture.

Molecule: C[C@@H]1CC[C@H]2[C@@H](C)C(=O)O[C@@H]3O[C@@]4(C)CC[C@@H]1[C@]32OO4 [artemisinin, reference compound]
- EC50 ([1]; Hepatitis C virus, ORL8, 72 h): 23 µM
- SI (CC50/EC50) ([1]; ORL8 cells): 16
- CC50 at 72 h [2]: 368 µM
- anti-HCV activity [3]: weak
- EC50 ([4]; Hepatitis C virus, OR6, 72 h): 81 µM
- anti-HCV activity (judgement) ([4]; OR6 and ORL8 cells): very weak anti-HCV activity
- SI (CC50/EC50) ([4]; OR6 cells): 5
- CC50 at 72 h [5]: 380 µM
- luciferase activity, artemisinin in combination with vitamin E ([6]; 100 μM + vitamin E 10 μM, 72 hours): 53%
- luciferase activity, artemisinin alone ([6]; 100 μM, 72 hours): 23%
- canceling of the anti-HCV activity by vitamin E [6]: not canceled

Molecule: vitamin E [reference compound]
- luciferase activity, vitamin E alone ([6]; vitamin E 10 μM alone, 72 hours): 217% and 194%
- increase of luciferase activity, vitamin E alone ([6]; vitamin E 10 μM alone, 72 hours (Comparative Example 2)): about 3 fold

Molecule: IFN-α
- canceling of the anti-HCV activity by vitamin E [6]: slightly found

Molecule: CC(C)n1c(/C=C/C(O)CC(O)CC(=O)O)c(-c2ccc(F)cc2)c2ccccc21 (centres unmarked) [FLV, Fluvastatin, reference compound]
- CC50 at 72 h [2]: 21 µM

Molecule: O=[N+]([O-])[O-].[K+] [KNO3]
- change in luciferase activity, oxidizing agent alone [7]: no change

Molecule: [Na+].[O-][Cl+3]([O-])([O-])[O-] [NaClO4]
- change in luciferase activity, oxidizing agent alone [7]: no change

— patent publication US9289411B2, “Anti-HCV agent” (NATIONAL UNIVERSITY CORPORATION OKAYAMA UNIVERSITY, priority 2011, dated 2016)
